In the supplement of paper PMC10307832:

Key:
Assay in all cases: relative viability (nuclei count vs DMSO), 5 days (fraction); higher = more cells survive
NCI-H23 = tested on: NCI-H23
Summary of the method: (§1)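 The day after seeding in 1536-well plates, lung cancer cell lines were treated by pin tool with a single drug, or with a fixed anchor-drug dose together with five library-drug doses (not always all listed) in √10 steps. After 5 days, a combined fix-and-stain solution (final 0.05% Triton X-100, 1% formaldehyde, 1 ug/ml Hoechst) was added. Nuclei counted on 4× images gave relative viability as treated counts over vehicle counts, reported as the median of duplicate plates.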

COR-L23 = tested on: COR-L23
Summary of the method: as §1

NCI-H1944 = tested on: NCI-H1944
Summary of the method: as §1

201T = tested on: 201T
Summary of the method: as §1

LU99A = tested on: LU99A
Summary of the method: as §1

NCI-H838 = tested on: NCI-H838
Summary of the method: as §1

NCI-H1793 = tested on: NCI-H1793
Summary of the method: as §1

NCI-H2347 = tested on: NCI-H2347
Summary of the method: as §1

A-427 = tested on: A-427
Summary of the method: as §1

H3255 = tested on: H3255
Summary of the method: as §1

PC-3 [JPC-3] = tested on: PC-3 [JPC-3]
Summary of the method: as §1

SW 1573 = tested on: SW 1573
Summary of the method: as §1

NCI-H460 = tested on: NCI-H460
Summary of the method: as §1

LCLC-103H = tested on: LCLC-103H
Summary of the method: as §1

LCLC-97TM1 = tested on: LCLC-97TM1
Summary of the method: as §1

LK-2 = tested on: LK-2
Summary of the method: as §1

NCI-H727 = tested on: NCI-H727
Summary of the method: as §1

HCC-44 = tested on: HCC-44
Summary of the method: as §1

NCI-H650 = tested on: NCI-H650
Summary of the method: as §1

PC-14 = tested on: PC-14
Summary of the method: as §1

NCI-H1563 = tested on: NCI-H1563
Summary of the method: as §1

CC1(C)CCC(c2ccc(Cl)cc2)=C(CN2CCN(c3ccc(C(=O)NS(=O)(=O)c4ccc(N[C@H](CCN5CCOCC5)CSc5ccccc5)c(S(=O)(=O)C(F)(F)F)c4)cc3)CC2)C1 [Navitoclax] + Cc1nc(NC(=O)N2CCC[C@H]2C(N)=O)sc1-c1ccnc(C(C)(C)C(F)(F)F)c1 [Alpelisib] (partner 2 µM)
relative viability (NCI-H23; first compound 0.005 µM): 0.649 | relative viability (NCI-H23; first compound 0.01581 µM): 0.679 | relative viability (NCI-H23; first compound 0.05 µM): 0.676 | relative viability (NCI-H23; first compound 0.1581 µM): 0.633 | relative viability (NCI-H23; first compound 0.5 µM): 0.598 | relative viability (COR-L23; first compound 0.005 µM): 0.67 | relative viability (COR-L23; first compound 0.01581 µM): 0.807 | relative viability (COR-L23; first compound 0.05 µM): 0.697 | relative viability (COR-L23; first compound 0.1581 µM): 0.7 | relative viability (COR-L23; first compound 0.5 µM): 0.855 | relative viability (NCI-H1944; first compound 0.005 µM): 0.832 | relative viability (NCI-H1944; first compound 0.01581 µM): 0.863 | relative viability (NCI-H1944; first compound 0.05 µM): 0.786 | relative viability (NCI-H1944; first compound 0.1581 µM): 0.836 | relative viability (NCI-H1944; first compound 0.5 µM): 0.82 | relative viability (201T; first compound 0.005 µM): 1.03 | relative viability (201T; first compound 0.01581 µM): 1.04 | relative viability (201T; first compound 0.05 µM): 1.02 | relative viability (201T; first compound 0.1581 µM): 1 | relative viability (201T; first compound 0.5 µM): 1.03 | relative viability (LU99A; first compound 0.005 µM): 0.5 | relative viability (LU99A; first compound 0.01581 µM): 0.573 | relative viability (LU99A; first compound 0.05 µM): 0.406 | relative viability (LU99A; first compound 0.1581 µM): 0.526 | relative viability (LU99A; first compound 0.5 µM): 0.473 | relative viability (NCI-H838; first compound 0.005 µM): 0.96 | relative viability (NCI-H838; first compound 0.01581 µM): 1.1 | relative viability (NCI-H838; first compound 0.05 µM): 1.12 | relative viability (NCI-H838; first compound 0.1581 µM): 1.03 | relative viability (NCI-H838; first compound 0.5 µM): 1.03 | relative viability (NCI-H1793; first compound 0.005 µM): 0.772 | relative viability (NCI-H1793; first compound 0.01581 µM): 0.799 | relative viability (NCI-H1793; first compound 0.05 µM): 0.574 | relative viability (NCI-H1793; first compound 0.1581 µM): 0.858 | relative viability (NCI-H1793; first compound 0.5 µM): 0.609 | relative viability (NCI-H2347; first compound 0.005 µM): 0.997 | relative viability (NCI-H2347; first compound 0.01581 µM): 1.07 | relative viability (NCI-H2347; first compound 0.05 µM): 1.08 | relative viability (NCI-H2347; first compound 0.1581 µM): 0.927 | relative viability (NCI-H2347; first compound 0.5 µM): 1.2 | relative viability (A-427; first compound 0.005 µM): 1.01 | relative viability (A-427; first compound 0.01581 µM): 1.06 | relative viability (A-427; first compound 0.05 µM): 0.908 | relative viability (A-427; first compound 0.1581 µM): 1.14 | relative viability (A-427; first compound 0.5 µM): 1.04 | relative viability (H3255; first compound 0.005 µM): 0.635 | relative viability (H3255; first compound 0.01581 µM): 0.745 | relative viability (H3255; first compound 0.05 µM): 0.6 | relative viability (H3255; first compound 0.1581 µM): 0.744 | relative viability (H3255; first compound 0.5 µM): 0.732 | relative viability (PC-3 [JPC-3]; first compound 0.005 µM): 1.04 | relative viability (PC-3 [JPC-3]; first compound 0.01581 µM): 1.02 | relative viability (PC-3 [JPC-3]; first compound 0.05 µM): 1.02 | relative viability (PC-3 [JPC-3]; first compound 0.1581 µM): 1.03 | relative viability (PC-3 [JPC-3]; first compound 0.5 µM): 1.06 | relative viability (SW 1573; first compound 0.005 µM): 0.635 | relative viability (SW 1573; first compound 0.01581 µM): 0.836 | relative viability (SW 1573; first compound 0.05 µM): 0.917 | relative viability (SW 1573; first compound 0.1581 µM): 0.796 | relative viability (SW 1573; first compound 0.5 µM): 0.718 | relative viability (NCI-H460; first compound 0.005 µM): 0.5 | relative viability (NCI-H460; first compound 0.01581 µM): 0.533 | relative viability (NCI-H460; first compound 0.05 µM): 0.639 | relative viability (NCI-H460; first compound 0.1581 µM): 0.511 | relative viability (NCI-H460; first compound 0.5 µM): 0.46 | relative viability (LCLC-103H; first compound 0.005 µM): 0.948 | relative viability (LCLC-103H; first compound 0.01581 µM): 1.13 | relative viability (LCLC-103H; first compound 0.05 µM): 0.97 | relative viability (LCLC-103H; first compound 0.1581 µM): 0.919 | relative viability (LCLC-103H; first compound 0.5 µM): 0.963 | relative viability (LCLC-97TM1; first compound 0.005 µM): 0.335 | relative viability (LCLC-97TM1; first compound 0.01581 µM): 0.328 | relative viability (LCLC-97TM1; first compound 0.05 µM): 0.241 | relative viability (LCLC-97TM1; first compound 0.1581 µM): 0.228 | relative viability (LCLC-97TM1; first compound 0.5 µM): 0.243 | relative viability (LK-2; first compound 0.005 µM): 0.919 | relative viability (LK-2; first compound 0.01581 µM): 1.29 | relative viability (LK-2; first compound 0.05 µM): 1.12 | relative viability (LK-2; first compound 0.1581 µM): 0.997 | relative viability (LK-2; first compound 0.5 µM): 1.08 | relative viability (NCI-H727; first compound 0.005 µM): 0.5 | relative viability (NCI-H727; first compound 0.01581 µM): 0.619 | relative viability (NCI-H727; first compound 0.1581 µM): 0.526 | relative viability (NCI-H727; first compound 0.5 µM): 0.434 | relative viability (HCC-44; first compound 0.005 µM): 0.736 | relative viability (HCC-44; first compound 0.01581 µM): 0.805 | relative viability (HCC-44; first compound 0.05 µM): 0.849 | relative viability (HCC-44; first compound 0.1581 µM): 0.795 | relative viability (HCC-44; first compound 0.5 µM): 0.694 | relative viability (NCI-H650; first compound 0.005 µM): 1.1 | relative viability (NCI-H650; first compound 0.01581 µM): 1.15 | relative viability (NCI-H650; first compound 0.05 µM): 1.15 | relative viability (NCI-H650; first compound 0.1581 µM): 1.11 | relative viability (NCI-H650; first compound 0.5 µM): 1.16 | relative viability (PC-14; first compound 0.005 µM): 0.833 | relative viability (PC-14; first compound 0.01581 µM): 1.02 | relative viability (PC-14; first compound 0.05 µM): 0.92 | relative viability (PC-14; first compound 0.1581 µM): 0.926 | relative viability (PC-14; first compound 0.5 µM): 0.904 | relative viability (NCI-H1563; first compound 0.005 µM): 0.947 | relative viability (NCI-H1563; first compound 0.01581 µM): 1.03 | relative viability (NCI-H1563; first compound 0.05 µM): 0.989 | relative viability (NCI-H1563; first compound 0.1581 µM): 0.981 | relative viability (NCI-H1563; first compound 0.5 µM): 1.13
